Calls of active or inactive are those of the source. The calls are words filed in the database; no cut-off is given here.
Columns and labels:
Cytochrome P450 2B6 = target: T1, Cytochrome P450 2B6 (Homo sapiens, UniProt P20813); test: Activation of CYP2B6 in human hepatocyte using bupropion as substrate preincubated for 5 days followed by substrate addition and measured after 1 hr by LC-MS/MS analysis; assay type: ADME, cell-based
T1 sequence (P20813 whole entry): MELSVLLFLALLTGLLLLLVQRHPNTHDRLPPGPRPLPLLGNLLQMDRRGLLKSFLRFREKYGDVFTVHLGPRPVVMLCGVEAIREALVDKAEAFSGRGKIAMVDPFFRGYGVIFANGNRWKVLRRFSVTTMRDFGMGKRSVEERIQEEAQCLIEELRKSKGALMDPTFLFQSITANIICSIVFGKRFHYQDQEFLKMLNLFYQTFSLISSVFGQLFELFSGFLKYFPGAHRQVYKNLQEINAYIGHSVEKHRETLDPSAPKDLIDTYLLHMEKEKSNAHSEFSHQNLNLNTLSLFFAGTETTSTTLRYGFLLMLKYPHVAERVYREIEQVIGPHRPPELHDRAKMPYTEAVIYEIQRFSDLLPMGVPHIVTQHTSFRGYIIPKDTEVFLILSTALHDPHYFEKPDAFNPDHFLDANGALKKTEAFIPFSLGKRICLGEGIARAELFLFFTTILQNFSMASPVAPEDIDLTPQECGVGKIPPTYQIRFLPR

CYP1A2 = target: T2, CYP1A2 (Homo sapiens, UniProt P05177); test: Activation of CYP1A2 in human hepatocyte using phenacetin as substrate preincubated for 5 days followed by substrate addition and measured after 1 hr by LC-MS/MS analysis relative to control; assay type: ADME, cell-based; settings: hepatocytes, probe phenacetin, time 121 hrs
T2 sequence (P05177 whole entry): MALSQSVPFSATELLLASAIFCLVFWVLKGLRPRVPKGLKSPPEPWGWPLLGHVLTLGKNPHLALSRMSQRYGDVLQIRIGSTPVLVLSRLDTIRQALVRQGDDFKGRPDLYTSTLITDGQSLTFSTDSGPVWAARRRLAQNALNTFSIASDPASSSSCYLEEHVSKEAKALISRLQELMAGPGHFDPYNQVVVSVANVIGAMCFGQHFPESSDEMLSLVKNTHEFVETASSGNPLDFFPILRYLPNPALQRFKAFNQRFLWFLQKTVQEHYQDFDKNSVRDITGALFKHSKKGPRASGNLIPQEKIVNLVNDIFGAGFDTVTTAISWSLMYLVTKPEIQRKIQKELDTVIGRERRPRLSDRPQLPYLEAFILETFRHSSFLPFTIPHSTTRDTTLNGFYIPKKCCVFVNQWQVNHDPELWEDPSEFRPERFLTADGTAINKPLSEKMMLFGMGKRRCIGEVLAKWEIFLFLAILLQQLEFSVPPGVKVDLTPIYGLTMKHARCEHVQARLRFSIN

[1] = Ratio of unbound drug level in Sprague-Dawley rat brain to plasma at 1 to 10 mg/kg, po by LC-MS/MS analysis; assay type: ADME, organism-based; settings: dose 1-10 mg/kg, read-out: K(p,uu,brain)
[2] = Positive allosteric modulator activity at cynomolgus monkey M2 receptor expressed in CHO cells co-expressing Gqi5 in presence of EC20 concentration of acetylcholine by calcium mobilization assay; assay type: cell-based; settings: Macaca fascicularis
[3] = Oral bioavailability in Beagle dog at 3 mg/kg by LC-MS/MS analysis; assay type: ADME, organism-based, Canis lupus familiaris; settings: in vivo
[4] = target: T3, Muscarinic acetylcholine receptor M4 (Homo sapiens) (UniProt P08173); test: Positive allosteric modulator activity at human M4 receptor expressed in CHO cells co-expressing Gqi5 assessed as maximal response to ACh by calcium mobilization assay relative to contol; assay type: cell-based; settings: filed as positive allosteric modulator
T3 sequence (whole entry): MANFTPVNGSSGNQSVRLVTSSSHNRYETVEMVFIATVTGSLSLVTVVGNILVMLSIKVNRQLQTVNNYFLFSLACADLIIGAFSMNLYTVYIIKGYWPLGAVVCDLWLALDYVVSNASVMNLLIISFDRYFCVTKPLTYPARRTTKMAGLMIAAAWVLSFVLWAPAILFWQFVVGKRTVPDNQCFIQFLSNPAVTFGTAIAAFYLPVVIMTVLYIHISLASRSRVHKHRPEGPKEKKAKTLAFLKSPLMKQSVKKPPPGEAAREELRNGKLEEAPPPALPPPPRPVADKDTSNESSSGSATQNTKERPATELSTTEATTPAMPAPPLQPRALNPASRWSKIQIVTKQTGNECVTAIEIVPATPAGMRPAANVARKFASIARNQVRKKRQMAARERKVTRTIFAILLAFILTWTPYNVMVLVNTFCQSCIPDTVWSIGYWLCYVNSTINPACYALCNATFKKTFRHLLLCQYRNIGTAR

[5] = Cmax in Sprague-Dawley rat at 3 mg/kg,po by LC-MS/MS analysis; assay type: ADME, organism-based; set-up: dose 3 mg/kg, route po; settings: in vivo
[6] = Terminal brain concentration in rat model of amphetamine-induced hyperlocomotion activity at 1 to 10 mg/kg, po measured after 1.5 hrs; assay type: ADME, organism-based; settings: dose 1-10 mg/kg, read-out: Ct
CYP2B6 = target: T4, CYP2B6 (Homo sapiens, UniProt P20813); test: Activation of CYP2B6 in human hepatocyte using bupropion as substrate preincubated for 5 days followed by substrate addition and measured after 1 hr by LC-MS/MS analysis relative to control; assay type: ADME, cell-based; settings: hepatocytes, probe bupropion, time 121 hrs
T4 sequence (P20813 whole entry): T1 sequence (P20813 whole entry)

[7] = Terminal unbound brain concentration in rat model of amphetamine-induced hyperlocomotion activity at 1 to 10 mg/kg, po measured after 1.5 hrs; assay type: ADME, organism-based; settings: in vivo, dose 1-10 mg/kg
Rattus norvegicus [8] = test: Antipsychotic activity in MK-801-induced hyperlocomotion activity in rat assessed as minimum effective dose administered orally preincubated for 30 mins followed by MK-801 addition and measured after 60 mins by open field test; assay type: functional; settings: 1.5 h, route po, time 90 min, read-out: MED
[9] = Apparent permeability across apical to basolateral side in human Caco-2 cells; assay type: ADME, cell-based
[10] = Plasma protein binding in human assessed as unbound fraction incubated for 4 hrs by LC/MS/MS analysis; assay type: ADME, cell-free
Rattus norvegicus [11] = test: Reversal of MK-801-induced hyperlocomotion activity in rat at 10 to 30 mg/kg,po preincubated for 30 mins followed by MK-801 addition and measured after 60 mins by open field test relative to control; assay type: functional; settings: dose 10-30 mg/kg, time 90 min, 1.5 h
[12] = target: GABA-A receptor; anion channel; test: Inhibition of rat GABAA receptor; assay type: protein-complex assay
[13] = Clearance in Cynomolgous monkey plasma at 0.2 mg/kg,iv by LC-MS/MS analysis; settings: cynomolgus monkey
[14] = target: T3, Muscarinic acetylcholine receptor M4 (Homo sapiens); test: Positive allosteric modulator activity at human M4 receptor expressed in CHO cells co-expressing Gqi5 in absence of EC20 concentration of acetylcholine by calcium mobilization assay; assay type: cell-based
Rattus norvegicus [15] = test: Antipsychotic activity in amphetamine-induced hyperlocomotion activity in rat assessed as reversal of amphetamine-induced hyperlocomotion at 1 to 10 mg/kg, po preincubated for 30 mins followed by amphetamine addition and measured after 60 mins by open field test relative to control; assay type: functional; settings: dose 1-10 mg/kg, time 90 min, 1.5 h
[16] = Terminal unbound plasma concentration in rat model of amphetamine-induced hyperlocomotion activity at 1 to 10 mg/kg, po measured after 1.5 hrs; assay type: ADME, organism-based; settings: in vivo, dose 1-10 mg/kg

Q: What does the source list for `COc1ccc(CNC(=O)c2sc3nnc(C)c(C)c3c2N)cc1F`?
A: EC50 (Cytochrome P450 2B6): > 50 µM; Emax at 1 h (CYP1A2): ≤ 1%; Kp uu [1]: 0.37; EC50 [2]: > 30 µM; bioavailability [3]: 9.5%; Activity [4]: 80.6%; Activity ([4]; tested as the 2H-labelled form): 87.1%; Cmax [5]: 1200 nM; concentration at 1.5 h [6]: 560 nM; Emax at 1 h (CYP2B6): ≤ 1%; Drug uptake(free) [7]: 0.02 µM; minimal effective dose (Rattus norvegicus [8]): 30 mg/kg; Papp A→B [9]: 31 ×10⁻⁶ cm/s; fraction unbound at 4 h [10]: 0.054; Activity (Rattus norvegicus [11]): 41.1%; IC50 [12]: 1.2 µM; clearance [13]: 25 mL/min/kg; Activity [14]: inactive; Activity (Rattus norvegicus [15]): 43.2%; Cp(f) [16]: 60 nM

Reference: ChEMBL document CHEMBL5252536, “Discovery of VU0467485/AZ13713945: An M4 PAM Evaluated as a Preclinical Candidate for the Treatment of Schizophrenia” (ACS Med Chem Lett, 2017)
